For the assay, the target named is T1, AtHb3 (Arabidopsis thaliana, UniProt Q67XG0).
T1 construct: gene GLB3; recombinant in E. coli BL21(DE3), N-terminal 8xHis-MBP tag, TEV cleaved; class 3 truncated Hb; ferric (met) heme form
T1 sequence (Q67XG0 1-175): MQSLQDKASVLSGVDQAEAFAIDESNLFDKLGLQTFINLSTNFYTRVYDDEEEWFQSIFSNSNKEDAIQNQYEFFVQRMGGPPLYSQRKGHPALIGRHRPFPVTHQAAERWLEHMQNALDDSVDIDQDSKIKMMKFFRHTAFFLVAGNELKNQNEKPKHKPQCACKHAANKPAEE
Nature of the assay: UV-vis titration of the Soret band at […] nm. The assay is classed as binding.

Results on one compound are retold here after article PMC10975543, “Redox Reactivity of Nonsymbiotic Phytoglobins towards Nitrite” (Molecules, 2024).

Broadly, the Kd is the free concentration of one partner at which half of the binding sites on the other are occupied at equilibrium, for simple one-to-one binding.

`O=NO` [nitrite]: the Kd was 1500 ± 500 µM.
